Measured values from patent US20260337208A1, “HETEROCYCLIC DERIVATIVES AS JANUS KINASE INHIBITORS” (CHIESI FARMACEUTICI S.P.A., priority 2022, published 2026).

Experiments:
JAK1 = JAK1 (Homo sapiens, UniProt P23458); test: Biochemical potency on JAK1, TR-FRET (LANCE Ultra kinase assay); details: ATP corresponding to Km; cell-free; read-out: JAK1 inhibitory activity (pIC50) (converted)
Procedure: (§1) The objective of this study was to assess the capability of compounds to inhibit all 4 JAK isoforms activity in a cell-free environment. Assay for JAK 1, JAK 2, JAK 3 and TYK2 were performed by Time-resolved fluorescence resonance energy transfer (TR-FRET) technology. It consists in the interaction of two labelled binding partners detected by the energy transfer from an excited donor to an acceptor dye and measurement of light emission by the acceptor dye. LANCE Ultra kinase assay was used. In presence of JAK 1, JAK 2, JAK 3 and TYK2 kinases and ATP (corresponding to Km), the ULight peptide substrate (LANCE Ulight-JAK-1 (Tyr1023) Peptide, Perkin Elmer, TRF0121) is phosphorylated. It is then captured by Eu-anti-phospho-substrate antibody (LANCE Eu-W1024 Anti-phosphotyrosine (PT66), Perkin Elmer, AD0069), which bring the Eu-chelate donor and ULight acceptor dyes into close proximity. Upon excitation at 320 nm, the Eu-chelate transfers its energy to the ULight dye, resulting in a fluorescent light emission at 665 nm.
(§2) Serial dilutions of compounds in pure DMSO are prepared from 10 mM DMSO stock solutions. Compounds were tested in 384-well plate for 11 consecutive 5-fold dilutions starting from 20 μM highest concentration (20 μM-[…]). 200 nL of compound were transferred from mother plate to test plate by using Mosquito (TTP labtech). Assay was performed in 384-well Perkin Elmer test plate in 20 μL assay volume (kinase reaction) and 40 μL total volume (stopping reagent and antibody detection reagents). In 10 μL of substrate solution (peptide+ATP) 30/50/20/10 nM of peptide and 20/0.7/0.2/12 μM of ATP were added for JAK 1, JAK 2, JAK 3 and TYK2 respectively. 10 μL of enzyme solution was added to kinase reaction at these concentrations: 0.15/0.083/0.025/0.144 ng/μL of JAK 1, JAK 2, JAK 3 and TYK2 respectively. After shaking and 1.5 h of incubation at r.t., 20 μL of Stop (10 μL EDTA) and Detection mixture (10 μL Europium-anti-phospho antibody, final: 0.5 nM) were added. Reading was performed after 1 h of incubation on a En Vision 2104 reader (Perkin Elmer).
(§3) Calculation of IC50 data, curves and QC analysis was performed by using Excel tool and GraphPadPrism software, v9. Briefly, individual concentration-effect curves are generated by plotting the logarithm of the tested concentration of tested compounds (X) vs. corresponding percent inhibition values (Y) using least squares (ordinary) fit. Best fit IC50 values are calculated using Log (inhibitor) vs. normalized response—Variable slope equation, where Y=100/(1+10^((LogIC50−X)*HillSlope)). QC criteria parameters (Z′, S:B, R2, HillSlope) were checked for every IC50 curve. Calculation of IC50 data, curves and QC analysis were made using Excel tools and GraphPadPrism software. QC criteria parameters: Z′≥0.5, Hill Slope range 0.5 to 5, S:B>2.

JAK2 = JAK2 (Homo sapiens, UniProt O60674); test: Biochemical potency on JAK2, TR-FRET (LANCE Ultra kinase assay); details: ATP corresponding to Km; cell-free; read-out: JAK2 inhibitory activity (pIC50) (converted)
Chain of JAK2 (O60674 whole entry): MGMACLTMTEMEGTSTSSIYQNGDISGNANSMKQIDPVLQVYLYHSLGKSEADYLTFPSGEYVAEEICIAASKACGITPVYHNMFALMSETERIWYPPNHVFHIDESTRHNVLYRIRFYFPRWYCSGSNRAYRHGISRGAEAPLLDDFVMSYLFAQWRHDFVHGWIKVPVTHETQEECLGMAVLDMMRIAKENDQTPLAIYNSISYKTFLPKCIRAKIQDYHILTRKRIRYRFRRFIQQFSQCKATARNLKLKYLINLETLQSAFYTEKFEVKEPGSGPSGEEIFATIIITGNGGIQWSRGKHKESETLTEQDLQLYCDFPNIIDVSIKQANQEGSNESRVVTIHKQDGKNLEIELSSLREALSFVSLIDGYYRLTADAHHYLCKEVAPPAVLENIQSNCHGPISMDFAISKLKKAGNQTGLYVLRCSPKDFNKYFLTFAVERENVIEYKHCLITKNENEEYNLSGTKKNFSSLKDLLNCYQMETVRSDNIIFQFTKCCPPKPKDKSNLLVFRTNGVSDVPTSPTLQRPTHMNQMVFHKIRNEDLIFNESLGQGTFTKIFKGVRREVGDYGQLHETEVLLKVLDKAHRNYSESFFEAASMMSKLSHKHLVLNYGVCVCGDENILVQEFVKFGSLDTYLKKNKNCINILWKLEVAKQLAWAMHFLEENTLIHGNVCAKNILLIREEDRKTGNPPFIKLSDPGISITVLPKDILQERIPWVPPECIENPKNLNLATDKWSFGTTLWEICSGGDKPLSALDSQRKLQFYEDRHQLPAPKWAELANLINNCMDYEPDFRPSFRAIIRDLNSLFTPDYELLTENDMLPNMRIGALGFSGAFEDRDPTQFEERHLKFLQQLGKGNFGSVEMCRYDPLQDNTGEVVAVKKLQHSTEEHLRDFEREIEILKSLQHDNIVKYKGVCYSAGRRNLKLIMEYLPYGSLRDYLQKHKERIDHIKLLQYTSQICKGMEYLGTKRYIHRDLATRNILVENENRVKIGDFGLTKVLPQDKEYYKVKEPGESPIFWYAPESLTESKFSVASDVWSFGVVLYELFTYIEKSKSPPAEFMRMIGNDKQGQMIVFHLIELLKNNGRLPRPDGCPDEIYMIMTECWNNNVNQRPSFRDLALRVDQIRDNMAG
Procedure: as §1, §2, §3

JAK3 = molecular target: T1, JAK3 (Homo sapiens, UniProt P52333); test: Biochemical potency on JAK3, TR-FRET (LANCE Ultra kinase assay); details: ATP corresponding to Km; cell-free; read-out: JAK3 inhibitory activity (pIC50) (converted)
T1 sequence (P52333 1-1124): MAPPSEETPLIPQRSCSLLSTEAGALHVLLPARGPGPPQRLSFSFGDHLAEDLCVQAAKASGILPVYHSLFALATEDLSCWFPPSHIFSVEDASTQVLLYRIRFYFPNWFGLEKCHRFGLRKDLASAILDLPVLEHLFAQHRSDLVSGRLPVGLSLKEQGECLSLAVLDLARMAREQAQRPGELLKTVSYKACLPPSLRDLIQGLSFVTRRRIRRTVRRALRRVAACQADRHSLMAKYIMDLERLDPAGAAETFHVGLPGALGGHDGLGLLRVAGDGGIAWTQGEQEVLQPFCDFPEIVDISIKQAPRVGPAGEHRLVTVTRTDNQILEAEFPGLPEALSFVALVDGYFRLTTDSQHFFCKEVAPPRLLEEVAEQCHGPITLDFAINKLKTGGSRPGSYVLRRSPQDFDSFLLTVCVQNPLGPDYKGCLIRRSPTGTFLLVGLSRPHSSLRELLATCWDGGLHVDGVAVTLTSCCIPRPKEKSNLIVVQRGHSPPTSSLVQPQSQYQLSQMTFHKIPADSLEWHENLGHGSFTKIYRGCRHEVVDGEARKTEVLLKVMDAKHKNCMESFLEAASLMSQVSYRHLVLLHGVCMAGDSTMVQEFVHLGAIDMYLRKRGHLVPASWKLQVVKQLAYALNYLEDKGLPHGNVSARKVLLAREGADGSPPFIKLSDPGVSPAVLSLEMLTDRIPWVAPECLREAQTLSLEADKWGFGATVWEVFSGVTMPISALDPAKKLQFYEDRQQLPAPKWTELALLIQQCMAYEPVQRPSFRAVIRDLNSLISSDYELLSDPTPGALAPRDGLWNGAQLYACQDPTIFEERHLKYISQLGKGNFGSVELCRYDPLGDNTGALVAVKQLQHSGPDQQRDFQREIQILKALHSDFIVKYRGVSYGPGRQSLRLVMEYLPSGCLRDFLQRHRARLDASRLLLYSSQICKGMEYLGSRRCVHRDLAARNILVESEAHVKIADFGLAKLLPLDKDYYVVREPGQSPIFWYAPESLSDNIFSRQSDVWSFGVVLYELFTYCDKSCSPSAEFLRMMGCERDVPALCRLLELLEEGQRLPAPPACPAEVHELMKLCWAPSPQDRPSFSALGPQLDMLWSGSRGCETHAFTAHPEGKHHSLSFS
Procedure: as §1, §2, §3

TYK2 = TYK2 (Homo sapiens, UniProt P29597); test: Biochemical potency on Tyk2, TR-FRET (LANCE Ultra kinase assay); details: ATP corresponding to Km; cell-free; read-out: TYK2 inhibitory activity (pIC50) (converted)
Chain of TYK2 (P29597 whole entry): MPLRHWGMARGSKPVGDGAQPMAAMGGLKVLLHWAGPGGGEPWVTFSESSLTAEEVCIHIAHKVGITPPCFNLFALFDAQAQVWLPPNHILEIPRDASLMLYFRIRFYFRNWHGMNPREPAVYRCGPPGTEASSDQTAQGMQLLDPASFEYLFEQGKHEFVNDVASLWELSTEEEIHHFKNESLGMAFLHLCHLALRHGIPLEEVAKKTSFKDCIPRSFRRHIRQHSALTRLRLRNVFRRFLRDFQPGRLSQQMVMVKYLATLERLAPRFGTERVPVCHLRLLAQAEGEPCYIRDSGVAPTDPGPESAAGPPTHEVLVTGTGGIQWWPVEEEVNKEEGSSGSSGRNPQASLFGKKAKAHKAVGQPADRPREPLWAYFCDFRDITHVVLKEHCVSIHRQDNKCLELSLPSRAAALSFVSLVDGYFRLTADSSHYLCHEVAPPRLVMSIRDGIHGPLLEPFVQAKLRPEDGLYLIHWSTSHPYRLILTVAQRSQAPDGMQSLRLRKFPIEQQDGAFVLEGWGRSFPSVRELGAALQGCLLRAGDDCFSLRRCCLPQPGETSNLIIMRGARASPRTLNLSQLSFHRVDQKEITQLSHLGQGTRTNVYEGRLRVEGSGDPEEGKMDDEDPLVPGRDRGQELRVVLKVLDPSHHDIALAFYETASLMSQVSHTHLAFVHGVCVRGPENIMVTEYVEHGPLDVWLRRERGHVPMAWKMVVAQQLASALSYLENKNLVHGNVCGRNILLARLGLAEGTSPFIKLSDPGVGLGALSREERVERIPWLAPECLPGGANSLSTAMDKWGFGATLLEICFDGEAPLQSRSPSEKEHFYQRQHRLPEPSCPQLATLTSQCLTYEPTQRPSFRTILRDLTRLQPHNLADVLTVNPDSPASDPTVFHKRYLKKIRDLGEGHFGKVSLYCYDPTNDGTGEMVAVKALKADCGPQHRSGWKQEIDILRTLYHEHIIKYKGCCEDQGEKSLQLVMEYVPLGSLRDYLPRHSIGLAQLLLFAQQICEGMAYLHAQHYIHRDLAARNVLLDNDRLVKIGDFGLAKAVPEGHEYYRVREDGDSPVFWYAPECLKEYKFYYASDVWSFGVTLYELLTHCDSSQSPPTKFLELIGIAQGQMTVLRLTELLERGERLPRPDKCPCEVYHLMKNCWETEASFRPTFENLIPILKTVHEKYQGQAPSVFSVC
Procedure: as §1, §2, §3

[1] = system: pSTAT6 in BEAS-2B human cell line; test: Inhibition of IL-13 induced pSTAT6 in BEAS; format: cell-based; details: for IC50: Homo sapiens, BEAS-2B, 0.5 h, IL-13 trigger, 30 min, parent compound; for Fold difference parent vs predicted acid metabolite: ratio=IC50 predicted acid metabolite/IC50 ester
Procedure: BEAS-2B human cell line was seeded (100.000 cells/well) and incubated for 48 h at 37° C., 5% CO2, 95% humidity. Compounds were added and incubated 30 min followed by IL-13 as trigger. After 30 min incubation, cells were lysed and pSTAT6 determined by Fastscan phospho-stat6 (Tyr641) sandwich ELISA kit (cell signaling). Inhibitors were tested at 11 consecutive 5-fold dilutions starting from 10 μM (10 μM-[…]) in duplicate. Calculation of IC50 data, curves and QC analysis were made using Excel tools and GraphPadPrism software. QC criteria parameters: Z′≥0.35, Hill Slope range 0.5 to 5, S:B>2.

Chain of JAK1 (P23458 whole entry, canonical isoform): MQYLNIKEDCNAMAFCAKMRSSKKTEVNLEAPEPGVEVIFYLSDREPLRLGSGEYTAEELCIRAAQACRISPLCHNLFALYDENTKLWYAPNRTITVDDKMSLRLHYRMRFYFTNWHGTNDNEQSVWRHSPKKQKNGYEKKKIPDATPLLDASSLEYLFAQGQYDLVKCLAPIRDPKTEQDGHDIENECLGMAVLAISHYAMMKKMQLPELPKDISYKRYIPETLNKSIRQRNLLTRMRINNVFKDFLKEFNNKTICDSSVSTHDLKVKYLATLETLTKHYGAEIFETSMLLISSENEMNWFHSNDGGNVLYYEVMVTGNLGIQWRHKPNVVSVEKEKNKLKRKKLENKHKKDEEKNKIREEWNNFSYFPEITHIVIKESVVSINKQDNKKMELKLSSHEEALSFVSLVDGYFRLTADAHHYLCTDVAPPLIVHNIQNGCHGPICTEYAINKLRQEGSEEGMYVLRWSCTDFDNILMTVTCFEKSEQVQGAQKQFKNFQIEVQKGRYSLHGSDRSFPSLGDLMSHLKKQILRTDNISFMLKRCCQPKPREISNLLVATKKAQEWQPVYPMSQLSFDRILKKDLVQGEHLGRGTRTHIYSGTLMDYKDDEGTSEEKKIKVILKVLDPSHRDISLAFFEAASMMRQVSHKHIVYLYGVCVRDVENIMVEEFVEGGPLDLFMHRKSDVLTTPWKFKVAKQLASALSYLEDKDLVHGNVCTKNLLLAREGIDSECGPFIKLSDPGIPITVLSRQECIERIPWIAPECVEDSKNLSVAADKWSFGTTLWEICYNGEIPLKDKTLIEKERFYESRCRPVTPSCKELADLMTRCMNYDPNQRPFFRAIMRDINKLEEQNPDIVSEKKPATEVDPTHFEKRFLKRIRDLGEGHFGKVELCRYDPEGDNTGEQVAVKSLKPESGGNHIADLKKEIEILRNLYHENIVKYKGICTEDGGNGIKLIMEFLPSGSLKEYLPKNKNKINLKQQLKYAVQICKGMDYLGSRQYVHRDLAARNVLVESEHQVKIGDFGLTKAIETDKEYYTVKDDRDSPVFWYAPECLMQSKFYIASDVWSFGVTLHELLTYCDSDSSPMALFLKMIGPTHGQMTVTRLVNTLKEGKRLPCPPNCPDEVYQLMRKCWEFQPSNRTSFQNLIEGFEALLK

| SMILES | IC50 (JAK1) [nM] | IC50 (JAK2) [nM] | IC50 (JAK3) [nM] | IC50 (TYK2) [nM] | IC50 [1] [nM] | Fold difference parent vs predicted acid metabolite [1] |
| --- | --- | --- | --- | --- | --- | --- |
| COc1cc2c(cc1-n1nc(C(=O)OCCCN3CCN(C)CC3)c3cnc(-c4cnn5cccnc45)cc31)SCCN2 [Example 8, 3-(4-methylpiperazin-1-yl)propyl 1-(6-methoxy-3,4-dihydro-2H-benzo[b][1,4]thiazin-7-yl)-6-(pyrazolo[1,5-a]pyrimidin-3-yl)-1H-pyrazolo[4,3-c]pyridine-3-carboxylate] | ≤ 5.01 | ≤ 5.01 | ≤ 5.01 | ≤ 5.01 | 5.01 to 50.1 | – |
| CCOC(=O)[C@H]1C[C@@H](OC(=O)Nc2nn(-c3cc4c(cc3OC)NCCS4)c3cc(-c4cnn5cccnc45)ncc23)C1 [Example 2, ethyl (1s,3s)-3-(((1-(6-methoxy-3,4-dihydro-2H-benzo[b][1,4]thiazin-7-yl)-6-(pyrazolo[1,5-a]pyrimidin-3-yl)-1H-pyrazolo[4,3-c]pyridin-3-yl)carbamoyl)oxy)cyclobutane-1-carboxylate] | ≤ 5.01 | ≤ 5.01 | ≤ 5.01 | 5.01 to 50.1 | 5.01 to 50.1 | – |
| COc1cc2c(cc1-n1nc(C(=O)NCCN3CCC(CC(=O)O[C@@H]4CCN(CCF)C4)CC3)c3cnc(-c4cnn5cccnc45)cc31)OCCN2 [Example 52, (R)-1-(2-fluoroethyl)pyrrolidin-3-yl 2-(1-(2-(1-(6-methoxy-3,4-dihydro-2H-benzo[b][1,4]oxazin-7-yl)-6-(pyrazolo[1,5-a]pyrimidin-3-yl)-1H-pyrazolo[4,3-c]pyridine-3-carboxamido)ethyl)piperidin-4-yl)acetate] | ≤ 5.01 | ≤ 5.01 | ≤ 5.01 | 5.01 to 50.1 | 5.01 to 50.1 | kkk (200>ratio≥100) |
| COc1cc2c(cc1-n1nc(C(=O)NCCN3CCC(C(=O)O[C@@H]4CN(C)C[C@H]4F)CC3)c3cnc(-c4cnn5cccnc45)cc31)OCCN2 (relative stereo) [Example 51, (3R*,4R*)-4-fluoro-1-methylpyrrolidin-3-yl 1-(2-(1-(6-methoxy-3,4-dihydro-2H-benzo[b][1,4]oxazin-7-yl)-6-(pyrazolo[1,5-a]pyrimidin-3-yl)-1H-pyrazolo[4,3-c]pyridine-3-carboxamido)ethyl)piperidine-4-carboxylate] | ≤ 5.01 | ≤ 5.01 | ≤ 5.01 | 5.01 to 50.1 | 5.01 to 50.1 | kkk (200>ratio≥100) |
| COc1cc2c(cc1-n1nc(C(=O)NCCN3CCC(C(=O)OC4CN(C(C)C)C4)CC3)c3cnc(-c4cnn5cccnc45)cc31)OCCN2 [Example 57, 1-isopropylazetidin-3-yl 1-(2-(1-(6-methoxy-3,4-dihydro-2H-benzo[b][1,4]oxazin-7-yl)-6-(pyrazolo[1,5-a]pyrimidin-3-yl)-1H-pyrazolo[4,3-c]pyridine-3-carboxamido)ethyl)piperidine-4-carboxylate] | ≤ 5.01 | ≤ 5.01 | ≤ 5.01 | 5.01 to 50.1 | 5.01 to 50.1 | kkk (200>ratio≥100) |
| CCOC(=O)C1CCN(CCNC(=O)c2nn(-c3cc4c(cc3OC)NCCO4)c3cc(-c4cnn5cccnc45)ncc23)CC1 [Example 9, ethyl 1-(2-(1-(6-methoxy-3,4-dihydro-2H-benzo[b][1,4]oxazin-7-yl)-6-(pyrazolo[1,5-a]pyrimidin-3-yl)-1H-pyrazolo[4,3-c]pyridine-3-carboxamido)ethyl)piperidine-4-carboxylate] | ≤ 5.01 | ≤ 5.01 | ≤ 5.01 | 5.01 to 50.1 | ≤ 5.01 | kkkk (ratio≥200) |
| CCCOC(=O)CN(C)CCNC(=O)c1nn(-c2cc3c(cc2OC)NCCO3)c2cc(-c3cnn4cccnc34)ncc12 [Example 6, propyl N-(2-(1-(6-methoxy-3,4-dihydro-2H-benzo[b][1,4]oxazin-7-yl)-6-(pyrazolo[1,5-a]pyrimidin-3-yl)-1H-pyrazolo[4,3-c]pyridine-3-carboxamido)ethyl)-N-methylglycinate] | 5.01 to 50.1 | ≤ 5.01 | ≤ 5.01 | > 50.1 | 5.01 to 50.1 | – |
| CCOC(=O)COC(=O)Nc1nn(-c2cc3c(cc2OC)NCCS3)c2cc(-c3cnn4cccnc34)ncc12 [Example 3, ethyl 2-(((1-(6-methoxy-3,4-dihydro-2H-benzo[b][1,4]thiazin-7-yl)-6-(pyrazolo[1,5-a]pyrimidin-3-yl)-1H-pyrazolo[4,3-c]pyridin-3-yl)carbamoyl)oxy)acetate] | ≤ 5.01 | ≤ 5.01 | ≤ 5.01 | 5.01 to 50.1 | ≤ 5.01 | kkkk (ratio≥200) |
| CCOC(=O)C1(C)CCN(CCNC(=O)c2nn(-c3cc4c(cc3OC)NCCO4)c3cc(-c4cnn5cccnc45)ncc23)CC1 [Example 34, ethyl 1-(2-(1-(6-methoxy-3,4-dihydro-2H-benzo[b][1,4]oxazin-7-yl)-6-(pyrazolo[1,5-a]pyrimidin-3-yl)-1H-pyrazolo[4,3-c]pyridine-3-carboxamido)ethyl)-4-methylpiperidine-4-carboxylate] | ≤ 5.01 | ≤ 5.01 | ≤ 5.01 | 5.01 to 50.1 | 5.01 to 50.1 | – |
